Consider four molecules from BindingDB's records for doi:10.1021/acs.jmedchem.8b00435 (Shanghaitech University, 2018).

As usually defined, the EC50 is the concentration giving half of the maximal effect.

The nature of the assay: Agonist activity at adenosine A3 receptor (unknown origin) expressed in serum starved CHO cells assessed as increase in cell survival after 24 hrs by propidium iodide staining-based assay.
As for `CNC(=O)[C@@]12C[C@@H]1[C@@H](n1cnc3c(NCc4cccc(Cl)c4)nc(C#Cc4ccc(-c5ccccc5)cc4)nc31)[C@H](O)[C@@H]2O`, the EC50 worked out at 0.251 nM.

On to `CNC(=O)[C@@]12C[C@@H]1[C@@H](n1cnc3c(NCc4cccc(Cl)c4)nc(C#Cc4cc5cccc6ccc7cccc4c7c65)nc31)[C@H](O)[C@@H]2O`, for which the EC50 stood at 20 nM. On to `CNC(=O)[C@@]12C[C@@H]1[C@@H](n1cnc3c(NCc4cccc(Cl)c4)nc(C#Cc4ccc5ccc6cccc7ccc4c5c67)nc31)[C@H](O)[C@@H]2O`, for which the EC50 came out at 13 nM. On to `CNC(=O)[C@@]12C[C@@H]1[C@@H](n1cnc3c(NCc4cccc(Cl)c4)nc(C#Cc4ccccc4)nc31)[C@H](O)[C@@H]2O`, for which the concentration giving a half-maximal response (EC50) came out at 0.2 nM.
